Laboratory results published in patent US11400059B2, “Treatment of pain and/or pain related symptoms associated with dysmenorrhea” (ALYRA BIOTECH PTY LTD, priority 2017, dated 2022).
“Also recorded” adds a separate entry of the source.

Key:
[1] = system: mice with intrauterine LPS; assay: Facial Grimace Scale 24 hours after final LPS stimulation; type: in vivo, mouse (Balb/C); settings: intrauterine LPS vs saline, 24 hours after final LPS stimulation
Experimental: (§1) Group 1 included twelve mice with 20 μl endotoxin-free saline introduced to the uterus on the first day of estrus and the subsequent day over 3 consecutive estrous cycles. Group 2 included twelve mice with LPS (100 μg/kg) instilled in the uterus on the first day of estrus and saline injected on the subsequent day over 3 consecutive estrous cycles. Group 3 included twelve mice with LPS (100 μg/kg) mixed with amitriptyline (20 μl of a 100 μM solution, equivalent to 28 μg/kg) instilled in the uterus on the first day of estrus, and amitriptyline alone instilled on the subsequent day over 3 consecutive estrous cycles. Group 4 included 14 mice with LPS (100 μg/kg) mixed with TAK-242 (20 μl of a 100 μM solution, equivalent to 36 μg/kg) instilled on the first day of estrus and TAK-242 alone instilled on the subsequent day over 3 consecutive estrous cycles.
24 hours following the final LPS stimulation mice were subjected to assessment for the presence or absence of pain. This was assessed using the following tests:
Facial Grimace Scale: Photos of mice in their home cage will be taken, to score their facial Grimace and this was quantified and compared between groups. For further information see: http://www.nature.com/nmeth/journal/v7/n6/full/nmeth.1455.html.

[2] = system: spinal astrocytes (GFAP) in the dorsal horn of the spinal cord; assay: Spinal astrocyte activation (GFAP immunofluorescence) after intrauterine LPS; type: in vivo, mouse (Balb/C); settings: 3 estrous cycles
Experimental: as §1
(§2) The investigation involved the instillation of 20 ul of an endotoxin-free 0.9% saline solution into the uterus of all animals on the first day of estrus and the subsequent day during 3 consecutive estrous cycles. Additional agents added to the saline were included according to the groups outlined below. Where LPS is administered, this was done on only 1 day per estrous cycle.
(§3) Where amitriptyline or TAK-242 was administered, this is on both the first day of estrus and the subsequent day.
(§4) The spinal cord was assessed using immunohistochemistry techniques across levels T10, T11, T12, T13, L1, L2, L3, L4, L5, L6, S1 and S2 for Groups 1 and 2, where T represents the thoracic segment of the spinal cord, L represents the lumbar segment of the spinal cord and S represents the sacral segment of the spinal cord.
as §4, with “levels” for “levels T10, T11,”, “L6, S” for “L6, S1”, “Groups 3” for “Groups 1”, “and 4,” for “and 2,”, “cord. […]” for “cord.”

[3] = system: spinal microglia (Iba1) in the dorsal horn of the spinal cord; assay: Spinal microglial activation (Iba1 immunofluorescence) after intrauterine LPS; type: in vivo, mouse (Balb/C); settings: 3 estrous cycles
Experimental: as §1, §2, §3, §4
as §4, with “levels” for “levels T10, T11,”, “L6, S” for “L6, S1”, “Groups 3” for “Groups 1”, “and 4,” for “and 2,”, “cord. […]” for “cord.”

[4] = system: spinal glial cells in the dorsal horn of the spinal cord; assay: Spinal glial activation (astrocytes and microglia) after intrauterine LPS, overall statements; type: in vivo, mouse (Balb/C)
Excerpt: In the model, we investigated whether intrauterine LPS administration would cause an activation of the innate immune system in the uterus, replicating the inflammation often seen in dysmenorrhea, with possible association with pain. As inflammation is intrinsically linked with pain, we investigated whether activation of the innate immune system in the uterus would induce activation of spinal glial cells (central nervous system immune cells) in the dorsal horn of the spinal cord. Spinal glial cells include astrocytes and microglia. Activation of spinal glial cells was assessed using immunoflourescent staining with GFAP (astrocytes) or Iba1 (microglia). We then investigated if spinal glial activation is attenuated by the innate immune system blocking drugs amitriptyline and TAK-242.
as §1
Determination of spinal glial response was then assessed using immunofluorescence to confirm the validity of the experimental model.
Determination of the ability of TLR4 antagonists to block the activation of spinal astrocytes and microglia induced by intra-uterine instillation of LPS was assessed.
An assessment of glial activation was made using immunochemistry techniques including Ionized calcium binding adaptor molecule 1 (Iba1) expression and glial fibrillary-associated protein (GFAP) variability in the dorsal horn. Iba1 expression is a marker for microglial activation, and GFAP is a marker for astrocyte activation. The spinal cord levels chosen are consistent with the level of spinal afferent neurons associated with the pelvis, including the uterus in the mouse.

hTLR9 = biological target: T1, hTLR9 (Homo sapiens, UniProt Q9NR96); assay: Human TLR/NLR agonist screening, NF-κB SEAP reporter in HEK293 cells; type: cell-based; settings: agonist mode, Control+ = CpG ODN 2006 1 μg/mL
T1 construct: expressed in transfected cells; host or cells: HEK293
T1 sequence (Q9NR96 26-1032): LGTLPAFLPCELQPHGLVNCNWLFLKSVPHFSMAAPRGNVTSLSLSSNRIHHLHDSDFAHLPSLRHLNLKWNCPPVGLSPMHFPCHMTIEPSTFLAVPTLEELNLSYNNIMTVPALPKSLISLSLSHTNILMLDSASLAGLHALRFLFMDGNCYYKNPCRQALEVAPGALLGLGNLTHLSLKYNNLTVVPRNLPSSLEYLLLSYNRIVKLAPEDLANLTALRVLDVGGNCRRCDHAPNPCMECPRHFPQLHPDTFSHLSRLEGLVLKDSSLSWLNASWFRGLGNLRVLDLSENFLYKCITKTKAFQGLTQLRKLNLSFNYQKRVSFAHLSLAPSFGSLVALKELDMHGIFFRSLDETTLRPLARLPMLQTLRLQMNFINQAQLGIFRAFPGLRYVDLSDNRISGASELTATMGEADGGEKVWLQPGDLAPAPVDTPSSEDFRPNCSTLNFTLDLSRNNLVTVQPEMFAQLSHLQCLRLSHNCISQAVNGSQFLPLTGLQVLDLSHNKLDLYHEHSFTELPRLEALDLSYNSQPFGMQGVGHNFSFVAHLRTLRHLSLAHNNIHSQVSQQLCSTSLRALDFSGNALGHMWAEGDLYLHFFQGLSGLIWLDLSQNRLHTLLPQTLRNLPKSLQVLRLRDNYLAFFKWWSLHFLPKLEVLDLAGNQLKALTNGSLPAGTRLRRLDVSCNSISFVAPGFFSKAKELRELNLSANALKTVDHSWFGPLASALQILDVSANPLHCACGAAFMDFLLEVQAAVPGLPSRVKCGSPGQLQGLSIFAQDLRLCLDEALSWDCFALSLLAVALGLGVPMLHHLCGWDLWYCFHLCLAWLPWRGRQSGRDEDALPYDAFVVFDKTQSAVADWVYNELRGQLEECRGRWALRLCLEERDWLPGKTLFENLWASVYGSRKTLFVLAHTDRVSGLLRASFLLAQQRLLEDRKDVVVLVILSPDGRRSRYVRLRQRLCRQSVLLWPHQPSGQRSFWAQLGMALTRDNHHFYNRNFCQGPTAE
Experimental: (§5) Toll-Like Receptor (TLR), NOD-Like Receptor (NLR) and C-Type Lectin Receptor (CLR) stimulation were tested by assessing NF-κB activation in HEK293 cells expressing a given TLR, NLR or CLR. The activity of the test articles was tested at one concentration and compared to control ligands. These steps were performed in triplicate.
hTLR9: CpG ODN 2006 at 1 μg/mL Antagonist: 500 ng/mL.
(§6) In a 96-well plate (200 μL total volume) containing the appropriate cells (50,000-75,000 cells/well), 20 μL of the test article or the positive control ligand was added to the wells. For the antagonist assay, the test article was incubated with the cells, at 37° C. with 5% CO2, for 30 minutes prior to the addition of the positive control ligand to the wells. The media added to the wells was designed for the detection of NF-κB induced SEAP expression. After a 16-24 hr incubation the optical density (OD) was read at 650 nm on a Molecular Devices SpectraMax 340PC absorbance detector.
(§7) The fold induction (ratio of average induced value to average non-induced value) results were as follows: […]

hNOD1 = biological target: T2, hNOD1 (Homo sapiens, UniProt Q9Y239); assay: as above; type: cell-based; settings: agonist mode, Control+ = C12-iE-DAP 1 μg/mL
T2 construct: expressed in transfected cells; host or cells: HEK293
T2 sequence (Q9Y239 1-953): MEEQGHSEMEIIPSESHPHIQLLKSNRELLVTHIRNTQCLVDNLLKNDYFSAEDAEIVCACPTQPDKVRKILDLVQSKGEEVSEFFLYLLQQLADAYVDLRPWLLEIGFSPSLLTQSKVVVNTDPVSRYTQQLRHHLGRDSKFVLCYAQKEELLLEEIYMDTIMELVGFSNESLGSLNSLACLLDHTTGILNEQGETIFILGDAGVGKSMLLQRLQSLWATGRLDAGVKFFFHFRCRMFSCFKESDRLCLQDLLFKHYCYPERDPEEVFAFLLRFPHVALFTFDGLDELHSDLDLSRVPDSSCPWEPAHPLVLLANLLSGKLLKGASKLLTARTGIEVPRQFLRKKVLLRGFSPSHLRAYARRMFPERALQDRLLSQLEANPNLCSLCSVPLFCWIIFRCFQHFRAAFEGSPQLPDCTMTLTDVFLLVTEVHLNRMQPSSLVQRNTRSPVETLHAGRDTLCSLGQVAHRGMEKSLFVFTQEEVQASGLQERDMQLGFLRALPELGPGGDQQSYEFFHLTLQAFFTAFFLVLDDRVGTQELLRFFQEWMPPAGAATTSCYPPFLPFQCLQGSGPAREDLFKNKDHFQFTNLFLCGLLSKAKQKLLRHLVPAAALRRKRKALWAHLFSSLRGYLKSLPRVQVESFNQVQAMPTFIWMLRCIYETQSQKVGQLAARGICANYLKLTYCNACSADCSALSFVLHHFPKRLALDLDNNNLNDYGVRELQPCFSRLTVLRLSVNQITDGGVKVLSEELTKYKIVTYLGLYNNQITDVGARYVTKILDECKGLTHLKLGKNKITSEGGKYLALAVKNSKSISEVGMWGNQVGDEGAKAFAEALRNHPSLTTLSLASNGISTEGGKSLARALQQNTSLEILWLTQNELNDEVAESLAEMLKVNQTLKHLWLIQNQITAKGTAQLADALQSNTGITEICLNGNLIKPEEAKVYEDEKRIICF
Experimental: as §5
hNOD1: C12-iE-DAP at 1 μg/mL Antagonist: 100 ng/mL.
as §6, §7

hTLR5 = biological target: T3, hTLR5 (Homo sapiens, UniProt O60602); assay: as above; type: cell-based; settings: agonist mode, Control+ = S. typhimurium flagellin 100 ng/mL
T3 construct: expressed in transfected cells; host or cells: HEK293
T3 sequence (O60602 21-858): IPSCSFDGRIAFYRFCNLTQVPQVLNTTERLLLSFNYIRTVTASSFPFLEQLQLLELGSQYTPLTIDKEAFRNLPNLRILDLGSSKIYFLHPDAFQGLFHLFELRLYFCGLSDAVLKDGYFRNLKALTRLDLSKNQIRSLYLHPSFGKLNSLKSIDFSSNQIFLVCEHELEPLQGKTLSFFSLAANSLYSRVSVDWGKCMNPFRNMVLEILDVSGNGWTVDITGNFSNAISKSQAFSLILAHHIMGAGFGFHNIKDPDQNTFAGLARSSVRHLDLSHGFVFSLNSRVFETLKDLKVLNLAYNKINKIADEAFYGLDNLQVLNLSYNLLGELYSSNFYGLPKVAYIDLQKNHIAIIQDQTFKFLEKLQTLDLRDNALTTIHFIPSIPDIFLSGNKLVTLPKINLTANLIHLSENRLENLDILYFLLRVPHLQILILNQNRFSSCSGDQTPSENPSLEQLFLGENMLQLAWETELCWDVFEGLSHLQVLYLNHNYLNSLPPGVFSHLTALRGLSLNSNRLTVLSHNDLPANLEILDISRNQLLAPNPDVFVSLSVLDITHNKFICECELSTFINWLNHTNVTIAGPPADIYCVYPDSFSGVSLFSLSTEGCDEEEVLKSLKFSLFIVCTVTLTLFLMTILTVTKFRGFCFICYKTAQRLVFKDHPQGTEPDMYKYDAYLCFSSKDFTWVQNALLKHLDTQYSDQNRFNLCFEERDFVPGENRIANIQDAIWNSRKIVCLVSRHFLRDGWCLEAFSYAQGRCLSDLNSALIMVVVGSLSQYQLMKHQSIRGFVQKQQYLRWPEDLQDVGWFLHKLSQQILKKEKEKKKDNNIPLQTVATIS
Experimental: as §5
hTLR5: S. typhimurium flagellin at 100 ng/mL Antagonist: 50 ng/mL.
as §6, §7

[5] = intrauterine, mixed with LPS 100 μg/kg on first day of estrus and alone the subsequent day, amitriptyline 28 μg/kg, TAK-242 36 μg/kg, vs LPS

## lipopolysaccharide [LPS]
[1]
  presentation of Grimace behaviours: significant increase in the presentation of Grimace behaviours
[2]; intrauterine LPS 100 μg/kg once per cycle, vs saline controls
  GFAP astrocyte staining: increase in GFAP astrocyte staining through widespread levels of the spinal cord; also recorded: substantial increase in GFAP astrocyte staining
[3]; intrauterine LPS 100 μg/kg once per cycle, vs saline
  Iba1 microglial staining: localised increase in Iba1 microglial staining
[4]; intra-uterine LPS
  activation of spinal glial cells (astrocytes and microglia): induced activation of spinal astrocytes and microglia; also recorded: activate spinal glial cells

## CCOC(=O)C1=CCCC[C@H]1S(=O)(=O)Nc1ccc(F)cc1Cl [TAK-242]
[2]; [5]
  astrocytic reactivity (GFAP staining), impact of intrauterine LPS at multiple levels of the spinal cord: reduced astrocytic reactivity to below basal levels
[3]; [5]
  microglial reactivity (Iba1 staining), impact of intrauterine LPS at multiple levels of the spinal cord: reduced microglia reactivity to basal levels
[4]; intrauterine co-administration with LPS
  spinal glial activation induced by intrauterine LPS: prevented; also recorded: block spinal glial activation
[4]; mouse model, intrauterine administration
  dose effective at reducing spinal glial activation: 0.036 mg/kg

## CpG ODN 2006
hTLR9
  Fold induction (ratio of average induced value to average non-induced value): 18

## CCCCCCCCCCCC(=O)N[C@H](CCC(=O)NC(CCCC(N)C(=O)O)C(=O)O)C(=O)O (some centres unmarked) [C12-iE-DAP]
hNOD1
  Fold induction (ratio of average induced value to average non-induced value): 20

B1: S. typhimurium flagellin: hTLR5 control ligand (protein, UniProt P06179 2-495, looked up)
Flagellin: AQVINTNSLSLLTQNNLNKSQSALGTAIERLSSGLRINSAKDDAAGQAIANRFTANIKGLTQASRNANDGISIAQTTEGALNEINNNLQRVRELAVQSANSTNSQSDLDSIQAEITQRLNEIDRVSGQTQFNGVKVLAQDNTLTIQVGANDGETIDIDLKQINSQTLGLDTLNVQQKYKVSDTAATVTGYADTTIALDNSTFKASATGLGGTDQKIDGDLKFDDTTGKYYAKVTVTGGTGKDGYYEVSVDKTNGEVTLAGGATSPLTGGLPATATEDVKNVQVANADLTEAKAALTAAGVTGTASVVKMSYTDNNGKTIDGGLAVKVGDDYYSATQNKDGSISINTTKYTADDGTSKTALNKLGGADGKTEVVSIGGKTYAASKAEGHNFKAQPDLAEAAATTTENPLQKIDAALAQVDTLRSDLGAVQNRFNSAITNLGNTVNNLTSARSRIEDSDYATEVSNMSRAQILQQAGTSVLAQANQVPQNVLSLLR
hTLR5
  Fold induction (ratio of average induced value to average non-induced value): 18
